From EP0347459A1, “CEPHALOSPORIN COMPOUNDS OR THEIR SALTS, PROCESS FOR THEIR PREPARATION, AND PHARMACEUTICAL COMPOSITIONS” (TEIJIN LIMITED, priority 1987, dated 1988) come the findings set out here.

In brackets after ≈: the same amount, converted by molar mass.

What all share (experiment): In vitro antibacterial activity, agar disc dilution method
Assay type in all cases: cell-based

For assay [1], the system named is M.luteus ATCC9341. As to conditions: Micrococcus luteus; M.luteus ATCC9341; Mueller Hinton agar, 10^6/ml, 37°C for 16 hours; read-out: minimum growth inhibitory concentration (MIC). The method, then:
(§1) An in vitro antibacterial activity was measured by an agar disc dilution method.
(§2) Varied test bacteria were cultivated overnight in triptophane-soybroth. A Mueller Hinton agar containing the compound of this invention in varied concentrations was streaked with one platinum loopful of each of the bacteria (number of living cells 10^6/ml).

Assay [2] relates to S.typhi 901. As to conditions: Salmonella enterica, 16 h, read-out: minimum growth inhibitory concentration (MIC). The protocol: as §1, §2
The test system of assay [3] is S.pyogenes Cook. As to conditions: Streptococcus pyogenes; S.pyogenes Cook; Mueller Hinton agar, 10^6/ml, 37°C for 16 hours; read-out: minimum growth inhibitory concentration (MIC). The protocol: as §1, §2
For assay [4], the system named is S.aureus 209p NIHJ JC1. As to conditions: Staphylococcus aureus; S.aureus 209p NIHJ JC1; Mueller Hinton agar, 10^6/ml, 37°C for 16 hours; read-out: minimum growth inhibitory concentration (MIC). The protocol:
as §1, §2

The test system of assay [5] is P.vulgalis OX-11. As to conditions: P.vulgalis OX-11; Mueller Hinton agar, 10^6/ml, 37°C for 16 hours; read-out: minimum growth inhibitory concentration (MIC). The method, then: as §1, §2
Assay [6] has as its system P.aeruginosa IFO3445. As to conditions: Pseudomonas aeruginosa; P.aeruginosa IFO3445; Mueller Hinton agar, 10^6/ml, 37°C for 16 hours; read-out: minimum growth inhibitory concentration (MIC). The protocol:
as §1, §2

The subject of assay [7] is S. aureus Terajima. As to conditions: Staphylococcus aureus; S. aureus Terajima; Mueller Hinton agar, 10^6/ml, 37°C for 16 hours; read-out: minimum growth inhibitory concentration (MIC). The method, then: as §1, §2
The subject of assay [8] is S.marcescens IAM1184. As to conditions: Serratia marcescens; S.marcescens IAM1184; Mueller Hinton agar, 10^6/ml, 37°C for 16 hours; read-out: minimum growth inhibitory concentration (MIC). The protocol: as §1, §2
Assay [9] concerns S.enteritidis G14. As to conditions: Salmonella enterica; S.enteritidis G14; Mueller Hinton agar, 10^6/ml, 37°C for 16 hours; read-out: minimum growth inhibitory concentration (MIC). The protocol: as §1, §2
Assay [10] concerns K.pneumoniae PCI602. As to conditions: Klebsiella pneumoniae; K.pneumoniae PCI602; Mueller Hinton agar, 10^6/ml, 37°C for 16 hours; read-out: minimum growth inhibitory concentration (MIC). The method, then: as §1, §2
Assay [11] has as its system P.morganii IFO3445. As to conditions: Morganella morganii; P.morganii IFO3445; Mueller Hinton agar, 10^6/ml, 37°C for 16 hours; read-out: minimum growth inhibitory concentration (MIC). The protocol: as §1, §2
Assay [12] concerns P.aeruginosa PAD1. As to conditions: Pseudomonas aeruginosa; P.aeruginosa PAD1; Mueller Hinton agar, 10^6/ml, 37°C for 16 hours; read-out: minimum growth inhibitory concentration (MIC). The protocol: as §1, §2
Assay [13] concerns E.cloacae 963. As to conditions: Enterobacter cloacae; E.cloacae 963; Mueller Hinton agar, 10^6/ml, 37°C for 16 hours; read-out: minimum growth inhibitory concentration (MIC). The protocol:
as §1, §2

Assay [14] relates to P.aeruginosa NCTC1049. As to conditions: Pseudomonas aeruginosa; P.aeruginosa NCTC1049; Mueller Hinton agar, 10^6/ml, 37°C for 16 hours; read-out: minimum growth inhibitory concentration (MIC). The protocol: as §1, §2

In the case of `CON=C(C(=O)NC1C(=O)N2C(C(=O)[O-])=C(C[n+]3ccc4cc(O)c(O)cc4c3)CSC12)c1csc(N)n1` [Comparative Compound A, (6R,7R)-7-[(Z)-2-(2-amino-l,3-thiazol-4-yl)-2-methoxyiminolacetamide-3-(6,7-dihydroxy-2-isoquinolinium)methyl-3-cephem-4-carboxylate, reference compound], the MIC in assay [1] stood at 0.4 mg/L (≈ 0.719 µM); in assay [2] it was 0.005 mg/L (≈ 0.00898 µM); in assay [3] it was 0.2 mg/L (≈ 0.359 µM); in assay [4], 0.4 mg/L (≈ 0.719 µM); in [5], 0.005 mg/L (≈ 0.00898 µM); in [6] it was 50 mg/L (≈ 89.8 µM). The MIC worked out at 0.4 mg/L (≈ 0.719 µM) in assay [7]; 0.005 mg/L (≈ 0.00898 µM) in [8]; 0.005 mg/L (≈ 0.00898 µM) in assay [9]; 0.005 mg/L (≈ 0.00898 µM) in assay [10]; 0.1 mg/L (≈ 0.18 µM) in assay [11]; 50 mg/L (≈ 89.8 µM) in assay [12]. Besides, the MIC in [13] worked out at 0.025 mg/L (≈ 0.0449 µM); in assay [14], 0.2 mg/L (≈ 0.359 µM).

As for `Nc1nc(C(=NOCC(=O)O)C(=O)NC2C(=O)N3C(C(=O)[O-])=C(C[n+]4ccc5cc(O)c(O)cc5c4)CSC23)ns1` [Compound II, (6R,7R)-7-[(Z)-5-amino-1,2,4-thiadiazol-3-yl)-2-(carboxymethoxyimino)acetamidel-3-(6,7-dihydroxy-2-isoquinolinium)methyl-3-cephem-4-carboxylate], the MIC in [1] came out at 1.6 mg/L (≈ 2.66 µM); in assay [2], 0.005 mg/L (≈ 0.00831 µM); in [3], 0.2 mg/L (≈ 0.332 µM); in assay [4], 12.5 mg/L (≈ 20.8 µM); in assay [5], 0.005 mg/L (≈ 0.00831 µM); in assay [6] it was 0.05 mg/L (≈ 0.0831 µM). The MIC in [7] was 3.1 mg/L (≈ 5.15 µM); in assay [8], 0.005 mg/L (≈ 0.00831 µM); in assay [9], 0.005 mg/L (≈ 0.00831 µM); in [10], 0.005 mg/L (≈ 0.00831 µM); in assay [11] it was 0.005 mg/L (≈ 0.00831 µM); in assay [12], 0.025 mg/L (≈ 0.0416 µM). In addition, the results for the MIC in assay [13] and in [14] were 0.005 mg/L (≈ 0.00831 µM) and 0.0125 mg/L (≈ 0.0208 µM), respectively.

For `Nc1nc(C(=NOC(C(=O)O)c2ccccc2)C(=O)NC2C(=O)N3C(C(=O)[O-])=C(C[n+]4ccc5cc(O)c(O)cc5c4)CSC23)ns1` [Compound IV, (6R,7R)-7-[(Z)-2-(5-amino-l,2,4-thiadiazol-3-yl-2-[(alpha-carboxybenzyl)oxyimino]acetamide-3-(6,7-dihydroxy-2-isoquinolinium)methyl-3-cephem-4-carboxylate], the MIC was 0.8 mg/L (≈ 1.18 µM) in [1]; 0.005 mg/L (≈ 0.00738 µM) in assay [2]; 0.8 mg/L (≈ 1.18 µM) in [3]; 3.2 mg/L (≈ 4.72 µM) in [4]; 0.005 mg/L (≈ 0.00738 µM) in assay [5]; 0.025 mg/L (≈ 0.0369 µM) in assay [6]. For the same compound, the MIC in assay [7] came out at 3.2 mg/L (≈ 4.72 µM); in assay [8], 0.005 mg/L (≈ 0.00738 µM); in assay [9], 0.005 mg/L (≈ 0.00738 µM); in [10], 0.005 mg/L (≈ 0.00738 µM); in assay [11], 0.005 mg/L (≈ 0.00738 µM); in assay [12], 0.025 mg/L (≈ 0.0369 µM). Further, the MIC was determined as 0.005 mg/L (≈ 0.00738 µM) in assay [13] and 0.0125 mg/L (≈ 0.0184 µM) in assay [14].
